Tested on: subjects with T2DM and CKD stage 3B or 4
Test: Phase 1b 28-day safety, tolerability and PK study in subjects with T2DM and CKD stage 3B or 4
Assay type: in vivo
Text: An Open Label, Parallel Arm Study to Assess the Safety, Tolerability, and Pharmacokinetics of Imeglimin in Subjects with Type 2 Diabetes Mellitus (T2DM) and Moderate to Severe Chronic Kidney Disease (CKD)
This Phase 1b study is to assess the safety, tolerability and pharmacokinetics (PK) of imeglimin in subjects with T2DM and CKD stage 3B or 4.
Subjects will be randomly allocated to receive one of three treatments or placebo.
Doses which are below the minimally acceptable doses are acceptable if stable for 12 weeks prior to Screening as per prescribing information. […] Primary Outcome Measures […]
Safety can be evaluated by assessment of clinical laboratory tests, physical examinations, vital signs measurements, and ECG readings at various time points during the study, and by the documentation of AEs.
The incidence of treatment-emergent adverse events (TEAE) will be summarized by treatment.
Plasma lactate will be summarized descriptively by absolute value at each visit by treatment group, together with the corresponding changes from baseline.
Pharmacokinetics (PK) data can be descriptively summarized by treatment group. PK parameters will be determined using noncompartmental methods. […] Steady-state can be evaluated using the trough concentration data.

C[C@H]1N=C(N(C)C)N=C(N)N1 [imeglimin, (6R)—N^2, N^2,6-trimethyl-3,6-dihydro-1,3,5-triazine-2,4-diamine]
Subjects with any TEAE (500 mg BID, CKD3b (n = 8)): 2 (25%) n, % | Subjects with any TEAE by maximum severity: Grade 1 - Mild (500 mg BID, CKD3b (n = 8)): 1 (13%) n, % | Subjects with any TEAE by maximum severity: Grade 2 - Moderate (500 mg BID, CKD3b (n = 8)): 1 (13%) n, % | Subjects with any TEAE by maximum severity: Grade 3 - Severe (500 mg BID, CKD3b (n = 8)): 0 n, % | Subjects with any TEAE by maximum severity: Grade 4 - Life-threatening (500 mg BID, CKD3b (n = 8)): 0 n, % | Subjects with any TEAE by maximum severity: Grade 5 - Death (500 mg BID, CKD3b (n = 8)): 0 n, % | Subjects with any study drug related TEAE (500 mg BID, CKD3b (n = 8)): 0 n, % | Subjects with any study drug related TEAE: Grade 1 - Mild (500 mg BID, CKD3b (n = 8)): 0 n, % | Subjects with any study drug related TEAE: Grade 2 - Moderate (500 mg BID, CKD3b (n = 8)): 0 n, % | Subjects with any study drug related TEAE: Grade 3 - Severe (500 mg BID, CKD3b (n = 8)): 0 n, % | Subjects with any study drug related TEAE: Grade 4 - Life-threatening (500 mg BID, CKD3b (n = 8)): 0 n, % | Subjects with any study drug related TEAE: Grade 5 - Death (500 mg BID, CKD3b (n = 8)): 0 n, % | TEAE: Gastrointestinal disorders (500 mg BID, CKD3b (n = 8)): 1 (13%) n, % | Subjects with any TEAE (500 mg BID, CKD4 (n = 5)): 1 (20%) n, % | Subjects with any TEAE by maximum severity: Grade 1 - Mild (500 mg BID, CKD4 (n = 5)): 0 n, % | Subjects with any TEAE by maximum severity: Grade 2 - Moderate (500 mg BID, CKD4 (n = 5)): 1 (20%) n, % | Subjects with any TEAE by maximum severity: Grade 3 - Severe (500 mg BID, CKD4 (n = 5)): 0 n, % | Subjects with any TEAE by maximum severity: Grade 4 - Life-threatening (500 mg BID, CKD4 (n = 5)): 0 n, % | Subjects with any TEAE by maximum severity: Grade 5 - Death (500 mg BID, CKD4 (n = 5)): 0 n, % | Subjects with any study drug related TEAE (500 mg BID, CKD4 (n = 5)): 0 n, % | Subjects with any study drug related TEAE: Grade 1 - Mild (500 mg BID, CKD4 (n = 5)): 0 n, % | Subjects with any study drug related TEAE: Grade 2 - Moderate (500 mg BID, CKD4 (n = 5)): 0 n, % | Subjects with any study drug related TEAE: Grade 3 - Severe (500 mg BID, CKD4 (n = 5)): 0 n, % | Subjects with any study drug related TEAE: Grade 4 - Life-threatening (500 mg BID, CKD4 (n = 5)): 0 n, % | Subjects with any study drug related TEAE: Grade 5 - Death (500 mg BID, CKD4 (n = 5)): 0 n, % | TEAE: Gastrointestinal disorders (500 mg BID, CKD4 (n = 5)): 0 n, % | Subjects with any TEAE (1000 mg BID, CKD3b (n = 6)): 4 (67%) n, % | Subjects with any TEAE by maximum severity: Grade 1 - Mild (1000 mg BID, CKD3b (n = 6)): 2 (33%) n, % | Subjects with any TEAE by maximum severity: Grade 2 - Moderate (1000 mg BID, CKD3b (n = 6)): 2 (33%) n, % | Subjects with any TEAE by maximum severity: Grade 3 - Severe (1000 mg BID, CKD3b (n = 6)): 0 n, % | Subjects with any TEAE by maximum severity: Grade 4 - Life-threatening (1000 mg BID, CKD3b (n = 6)): 0 n, % | Subjects with any TEAE by maximum severity: Grade 5 - Death (1000 mg BID, CKD3b (n = 6)): 0 n, % | Subjects with any study drug related TEAE (1000 mg BID, CKD3b (n = 6)): 2 (33%) n, % | Subjects with any study drug related TEAE: Grade 1 - Mild (1000 mg BID, CKD3b (n = 6)): 1 (17%) n, % | Subjects with any study drug related TEAE: Grade 2 - Moderate (1000 mg BID, CKD3b (n = 6)): 1 (17%) n, % | Subjects with any study drug related TEAE: Grade 3 - Severe (1000 mg BID, CKD3b (n = 6)): 0 n, % | Subjects with any study drug related TEAE: Grade 4 - Life-threatening (1000 mg BID, CKD3b (n = 6)): 0 n, % | Subjects with any study drug related TEAE: Grade 5 - Death (1000 mg BID, CKD3b (n = 6)): 0 n, % | TEAE: Gastrointestinal disorders (1000 mg BID, CKD3b (n = 6)): 1 (17%) n, % | Subjects with any TEAE (1000 mg BID, CKD4 (n = 7)): 4 (57%) n, % | Subjects with any TEAE by maximum severity: Grade 1 - Mild (1000 mg BID, CKD4 (n = 7)): 2 (29%) n, % | Subjects with any TEAE by maximum severity: Grade 2 - Moderate (1000 mg BID, CKD4 (n = 7)): 2 (29%) n, % | Subjects with any TEAE by maximum severity: Grade 3 - Severe (1000 mg BID, CKD4 (n = 7)): 0 n, % | Subjects with any TEAE by maximum severity: Grade 4 - Life-threatening (1000 mg BID, CKD4 (n = 7)): 0 n, % | Subjects with any TEAE by maximum severity: Grade 5 - Death (1000 mg BID, CKD4 (n = 7)): 0 n, % | Subjects with any study drug related TEAE (1000 mg BID, CKD4 (n = 7)): 1 (14%) n, % | Subjects with any study drug related TEAE: Grade 1 - Mild (1000 mg BID, CKD4 (n = 7)): 1 (14%) n, % | Subjects with any study drug related TEAE: Grade 2 - Moderate (1000 mg BID, CKD4 (n = 7)): 0 n, % | Subjects with any study drug related TEAE: Grade 3 - Severe (1000 mg BID, CKD4 (n = 7)): 0 n, % | Subjects with any study drug related TEAE: Grade 4 - Life-threatening (1000 mg BID, CKD4 (n = 7)): 0 n, % | Subjects with any study drug related TEAE: Grade 5 - Death (1000 mg BID, CKD4 (n = 7)): 0 n, % | TEAE: Gastrointestinal disorders (1000 mg BID, CKD4 (n = 7)): 2 (29%) n, % | Subjects with any TEAE (1500 mg QD, CKD3b (n = 17)): 4 (57%) n, % | Subjects with any TEAE by maximum severity: Grade 1 - Mild (1500 mg QD, CKD3b (n = 17)): 3 (43%) n, % | Subjects with any TEAE by maximum severity: Grade 2 - Moderate (1500 mg QD, CKD3b (n = 17)): 1 (14%) n, % | Subjects with any TEAE by maximum severity: Grade 3 - Severe (1500 mg QD, CKD3b (n = 17)): 0 n, % | Subjects with any TEAE by maximum severity: Grade 4 - Life-threatening (1500 mg QD, CKD3b (n = 17)): 0 n, % | Subjects with any TEAE by maximum severity: Grade 5 - Death (1500 mg QD, CKD3b (n = 17)): 0 n, %
